Laboratory results published in PubChem BioAssay (NCI).
Where “and” joins values, the source holds several entries; their conditions need not be identical. Equal values may be shown once.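 Method: 48-hour compound exposure of cells in 96-well plates, five concentrations, linear interpolation of endpoints. GI50 = concentration required for 50% inhibition of growth. TGI: concentration producing complete growth inhibition.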

How the values were obtained:
Assay in all cases: DTP human tumour cell line panel, 48 h
ACHN renal = system: ACHN renal
CCRF-CEM leukemia = system: CCRF-CEM leukemia
COLO 205 colon = system: COLO 205 colon
HOP-62 NSCLC = system: HOP-62 NSCLC
LOX IMVI melanoma = system: LOX IMVI melanoma
MDA-MB-231 breast = system: MDA-MB-231 breast
NCI-H460 lung = system: NCI-H460 lung
SK-MEL-2 melanoma = system: SK-MEL-2 melanoma
SK-MEL-28 melanoma = system: SK-MEL-28 melanoma
SR leukemia = system: SR leukemia

Compound	TGI (ACHN renal)	TGI (CCRF-CEM leukemia)	TGI (COLO 205 colon)	TGI (HOP-62 NSCLC)	TGI (LOX IMVI melanoma)	TGI (MDA-MB-231 breast)	TGI (NCI-H460 lung)	TGI (SK-MEL-2 melanoma)	TGI (SK-MEL-28 melanoma)	TGI (SR leukemia)	GI50 (ACHN renal)	GI50 (CCRF-CEM leukemia)	GI50 (COLO 205 colon)	GI50 (HOP-62 NSCLC)	GI50 (LOX IMVI melanoma)	GI50 (MDA-MB-231 breast)	GI50 (NCI-H460 lung)	GI50 (SK-MEL-2 melanoma)	GI50 (SK-MEL-28 melanoma)	GI50 (SR leukemia)
O=c1c2ccccc2sc2c(CO)ccc(NCCN3CCCCC3)c12	9.45 µM	3.99 µM	4.78 µM	14.6 µM	11 µM	19.4 µM	8.37 µM	14.5 µM	8.54 µM	7.71 µM	–	–	–	–	–	–	–	–	–	–
O=C1NC(=N[C@@H](CO)c2ccccc2)S/C1=C\c1ccc2ncccc2c1	> 25 µM	21.2 µM	15.9 µM	> 25 µM	> 18.3 µM	> 25 µM	> 25 µM	12.9 µM	> 25 µM	12.7 µM	3.97 µM	5.86 µM	5.5 µM	12.7 µM	6.15 µM	> 23.1 µM	7.75 µM	4.73 µM	> 20.2 µM	1.53 µM
COc1cc2c(cc1Nc1nc(N3CCc4ccccc43)c3cc[nH]c3n1)N(C(=O)CN(C)C)CC2	8.82 µM	1.49 µM	14.3 µM	9.46 µM	10.2 µM	12.7 µM	2.79 µM	12.3 µM	3.38 µM	1.28 µM	4.4 µM	0.611 µM	5.4 µM	4.62 µM	1.59 µM	5.86 µM	1.29 µM	6.01 µM	1.4 µM	0.517 µM
CNC(=O)c1ncccc1Nc1nc(Nc2cc3c(cc2OC)CCCN3C(=O)CN(C)C)nc2[nH]ccc12	6.72 µM	2.96 µM	1.18 µM	4.73 µM	4.77 µM	5.3 µM	3.77 µM	3.89 µM	6.77 µM	2.96 µM	3.23 µM	0.568 µM	0.127 µM	1.17 µM	1.26 µM	1.58 µM	0.613 µM	0.877 µM	3.18 µM	0.104 µM
COc1cc(CNc2nc3cc(N)cc(N)c3nc2-c2ccccc2)cc(OC)c1	47.3 µM	5.68 µM	6.04 µM	31.3 µM	81.7 µM	6.09 µM	> 100 µM	41 µM	8.62 µM	> 100 µM	9.42 µM	1.72 µM	2.38 µM	13.5 µM	4.51 µM	2.08 µM	10.5 µM	7.77 µM	1.76 µM	3.84 µM
CN[C@@H](C)C(=O)N[C@H]1CN(S(=O)(=O)c2cccc(S(=O)(=O)N3CC[C@H]4CC[C@@H](C(=O)NC(c5ccccc5)c5ccccc5)N4C(=O)[C@@H](NC(=O)[C@H](C)NC)C3)c2)CC[C@H]2CC[C@@H](C(=O)NC(c3ccccc3)c3ccccc3)N2C1=O	> 100 µM	> 100 µM	35.2 µM	> 100 µM	36.5 µM	–	46.3 µM	10.9 µM	29.7 µM	> 100 µM	> 79.7 µM	1.85 µM	15.3 µM	5.14 µM	14.8 µM	< 0.0157 µM	20.2 µM	< 0.0223 µM	15.6 µM	1.95 µM
CSC1=Nc2c(c(C)c(C)n2COC(CO)CO)C2=NC(=O)CN12	> 100 µM	> 100 µM	> 100 µM	> 100 µM	> 100 µM	> 100 µM	> 100 µM	> 100 µM	> 100 µM	> 100 µM	> 100 µM	> 100 µM	> 100 µM	> 100 µM	> 100 µM	> 100 µM	> 100 µM	> 100 µM	> 100 µM	> 100 µM
CCN1C(=S)N(CC)C2C1NC(=S)N2/N=C/C=C/c1ccccc1OC (stereo not drawn)	40.5 µM	> 100 µM	1.27 µM	> 100 µM	12.7 µM	10.3 µM	> 33.4 µM	56.7 µM	> 100 µM	–	0.464 µM	0.346 µM	0.312 µM	0.453 µM	0.488 µM	0.521 µM	0.335 µM	0.615 µM	1.11 µM	0.0833 µM
O=C1/C(=C\c2ccccc2)CN(C(=O)CCN2CCCCC2)C/C1=C/c1ccccc1	4.29 µM	0.866 µM	3.83 µM	25.7 µM	0.842 µM	3.29 µM	5.96 µM	4.44 µM	5.69 µM	14.5 µM	–	–	–	–	–	–	–	–	–	–
Cc1nn(-c2ccc(Cl)cc2)c2ncnc(N/N=C/c3ccccc3O)c12	12 µM and 10.5 µM	> 100 µM	> 46.2 µM and 27.6 µM	17.1 µM and 9.11 µM	11.9 µM and 10.2 µM	> 65.3 µM	3.14 µM and 5.67 µM	37.2 µM and > 100 µM	> 100 µM	43.5 µM	0.362 µM and 0.322 µM	0.342 µM and 0.23 µM	0.776 µM and 0.398 µM	0.538 µM and 0.322 µM	0.389 µM and 0.251 µM	0.694 µM and 0.375 µM	0.375 µM and 0.347 µM	1.24 µM and 1.59 µM	1.56 µM and 0.494 µM	0.445 µM and 0.206 µM
CC(=O)ON1CCCC(P(=O)(OCOC(=O)C(C)(C)C)OCOC(=O)C(C)(C)C)C1=O (stereo not drawn)	13.5 µM	7.81 µM	5.71 µM	7.53 µM	15.3 µM	5.04 µM	4.71 µM	6.91 µM	1.42 µM	2.34 µM	0.596 µM	0.125 µM	0.925 µM	0.923 µM	0.827 µM	0.446 µM	0.959 µM	1.58 µM	0.483 µM	0.309 µM
CC(C)(CO)CNC(=O)c1ccc2[nH]c(O)c(N=Nc3ccc(S(N)(=O)=O)cc3)c2c1	> 25 µM	> 25 µM	> 25 µM	> 25 µM	> 25 µM	> 25 µM	> 25 µM	> 25 µM	> 25 µM	> 25 µM	> 25 µM	> 25 µM	> 25 µM	> 25 µM	> 25 µM	> 25 µM	> 25 µM	> 25 µM	> 25 µM	> 25 µM
O=C(/C=C/C12c3ccccc3C(c3ccccc31)C1C(=O)NC(=O)C12)c1ccccn1 (stereo not drawn)	10.3 µM	9.92 µM	3.62 µM	4.15 µM	2.51 µM	4.44 µM	4.11 µM	3.95 µM	3.86 µM	7.31 µM	2.88 µM	1.44 µM	1.88 µM	1.75 µM	1.11 µM	1.49 µM	1.08 µM	1.76 µM	2.03 µM	0.782 µM
CC1(C)OC[C@@H]([C@@]2(CO[Si](c3ccccc3)(c3ccccc3)C(C)(C)C)CC=CC(=O)O2)O1	36.6 µM	> 100 µM	> 100 µM	60.9 µM	21 µM	> 100 µM	> 100 µM	> 100 µM	48.3 µM	16.6 µM	11.4 µM	6.63 µM	8.69 µM	31.5 µM	3.93 µM	20.6 µM	5.16 µM	6.23 µM	16.7 µM	4.1 µM
N#CC1c2ccccc2C=CN1C(=O)CCCl (stereo not drawn)	3.22 µM	21.2 µM	5.65 µM	40.6 µM	13.4 µM	23.8 µM	36.3 µM	28 µM	24 µM	26.7 µM	1.73 µM	3.45 µM	2.48 µM	19.8 µM	3.94 µM	8.78 µM	18.4 µM	13.6 µM	10.7 µM	3.07 µM
COc1ccc2c(N)ncc(C#Cc3cc(C(=O)Nc4ccc(CN5CCN(C)CC5)c(C(F)(F)F)c4)cnc3C)c2c1	1.15 µM	4.13 µM	4.48 µM	33.2 µM	1.08 µM	1.16 µM	1.03 µM	2.67 µM	1.81 µM	1.97 µM	0.436 µM	0.841 µM	0.568 µM	4.36 µM	0.505 µM	0.501 µM	0.476 µM	0.771 µM	0.66 µM	0.649 µM
COc1cc2c(N3CCN(C(=O)Nc4ccc(OC(C)C)cc4)CC3)ncnc2cc1OCCCN1CCCCC1	55.6 µM	> 79.3 µM	26.5 µM	34.2 µM	23.9 µM	32.4 µM	> 61.3 µM	32.3 µM	30.9 µM	46.2 µM	20.8 µM	18.3 µM	11.9 µM	14.4 µM	8.15 µM	14.4 µM	18.4 µM	15.6 µM	15.1 µM	9.55 µM
c1ccc(-c2[nH]ncc2-c2ccnc(-c3ccc(OCCn4ccnc4)cc3)c2)nc1	> 25 µM	> 25 µM	> 25 µM	> 25 µM	> 25 µM	> 25 µM	> 25 µM	> 25 µM	> 25 µM	> 25 µM	> 25 µM	17.3 µM	> 25 µM	> 25 µM	> 25 µM	> 25 µM	> 25 µM	> 25 µM	> 25 µM	> 25 µM
CC1=C(C(=O)Nc2ccccc2)C(c2ccc(N(C)C)cc2)C(C(=O)Nc2ccccc2)=C(C)N1	> 73.6 µM	57.7 µM	17.3 µM	24.2 µM	> 100 µM	> 100 µM	> 100 µM	> 100 µM	36.6 µM	> 92.8 µM	–	–	–	–	–	–	–	–	–	–
